According to patent US20020022742A1, “Salt forms of an HIV protease inhibitor” (priority 2000, published 2002):
Converted amounts (≈) assume the structure as drawn.

Tests used:
HIV protease = HIV protease (Human immunodeficiency virus type 1 group M subtype B, UniProt P04585); test: HIV protease inhibition (test only mentioned); assay type: biochemical; conditions: stated in words only, no value given
HIV-1 (RF) = test: HIV RNA assay, microplate based compound evaluation in HIV-1 infected MT-2 cells; assay type: cell-based; conditions: Human immunodeficiency virus 1, MT2, 72 h; HIV-1 (RF) infected MT-2 cells, 3 days of culture; virus dilutions selected to result in this value (standardization of inoculum); read-out: IC90 (concentration of compound required to reduce the HIV RNA level by 90%)

IC90 (HIV-1 (RF)) [µg/mL] | Compound | HIV protease inhibitory activity (HIV protease)
 | CC(C)CN(C[C@@H](O)[C@H](Cc1ccccc1)NC(=O)[C@@H](NC(=O)CNCc1cccc(F)c1)C(C)(C)C)S(=O)(=O)c1ccc(N)cc1 [Compound A] | potent HIV protease inhibitor
0.2 (≈ 0.947 µM) | Nc1ccn([C@H]2CC[C@@H](CO)O2)c(=O)n1 [ddC, dideoxycytidine] | 
